pIC50: −log10 of the molar value. Read-outs that look alike come from different tables or passages of the source.
Experiments:
[1] = molecular target: PARP1 (Homo sapiens, UniProt P09874); assay: PARP1-DNA enzymatic trapping assay; assay type: biochemical; settings: 10 nM PARP1, 5 nM DNA probe, 2 mM NAD+, fluorescence polarization read at 30 minutes
Procedure: Enzymatic trapping assay is to measure the dissociation process of PARP1 from fluorescein-labeled DNA during the enzymatic activity. Assay was conducted at a total 10 μL of reaction volume, including 10 nM PARP1 and 5 nM DNA probe in the binding buffer (50 mM Tris-HCl pH 8.0, 50 mM NaCl, 1 mM MgCl2, 0.1 mM EDTA, and 0.01% IGEPAL), and was commenced by adding a final concentration of 2 mM NAD+ substrate.
PARP1 Poly-ADP ribosylation (PARylation) inhibitory assay was conducted with compounds dissolved in DMSO at a starting concentration of 5 μM. Dissolved compounds were added to 384-well microplate and premixed with PARPI enzyme and DNA probe for 20 minutes incubation. Enzymatic reactions were started by adding NAD+ to mixture, and each well was read at 30 minutes by microplate reader (VICTOR Nivo®, PerkinElmer) to detect the fluorescence polarization signal at 480 nm excitation/530 nm dual emission.
All measured IC50 values were calculated using four parameters dose-response inhibition model in GraphPad Prism 8.0.2 (La Jolla, California, USA, www.graphpad.com).

[2] = molecular target: PARP2 (Homo sapiens, UniProt Q9UGN5); assay: PARP2-FL displacement assay; assay type: binding; settings: 20 nM PARP2, 3 nM PARPi-FL, 4 hours incubation, fluorescence polarization
Chain of PARP2 (Q9UGN5 whole entry): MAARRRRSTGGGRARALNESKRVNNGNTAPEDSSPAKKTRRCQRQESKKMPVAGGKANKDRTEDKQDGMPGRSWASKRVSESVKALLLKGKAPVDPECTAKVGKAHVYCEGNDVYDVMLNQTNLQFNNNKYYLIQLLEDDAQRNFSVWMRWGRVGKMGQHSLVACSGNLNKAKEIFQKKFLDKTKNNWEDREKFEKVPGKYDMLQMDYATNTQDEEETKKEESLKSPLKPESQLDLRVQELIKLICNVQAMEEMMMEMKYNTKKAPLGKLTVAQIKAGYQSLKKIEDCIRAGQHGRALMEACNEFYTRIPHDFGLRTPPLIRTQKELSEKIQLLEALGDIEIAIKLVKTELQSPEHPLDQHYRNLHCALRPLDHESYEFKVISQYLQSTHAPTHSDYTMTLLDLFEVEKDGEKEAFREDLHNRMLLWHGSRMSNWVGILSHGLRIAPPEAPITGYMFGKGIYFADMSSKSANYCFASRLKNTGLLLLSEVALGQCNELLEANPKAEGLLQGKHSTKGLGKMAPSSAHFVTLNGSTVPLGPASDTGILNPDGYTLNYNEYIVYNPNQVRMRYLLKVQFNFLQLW
Procedure: A potent PARP inhibitor (PARPi-FL, Cat No. 6461, Tocris Bioscience) conjugated to BDY FL fluorophore was adopted to characterize the activity of PARP2 by measuring the displacement of binding of PARPi-FL to PARP2. Compounds to be tested were prepared at a concentration of 1-10 mM, and made a 3-fold serial dilution by 100% DMSO in a polypropylene plate (Bio-One small volume microplate, black, Cat No. 784076, Greiner). 100 nL of test compounds were dispensed into a 384-well polypropylene microplate and added 10 μL of reaction solution including premixed 20 nM PARP2 and 3 nM PARPi-FL. After 4 hours of incubation at room temperature, the fluorescence polarization signal at 480/30 nm excitation and 530/30 nm dual emission was measured by VICTOR Nivo® multimode plate reader (PerkinElmer). All of the measured IC50 values were calculated using four parameters dose-response inhibition model in GraphPad Prism 8.0.2 (La Jolla, California, USA, www.graphpad.com).

[3] = tested on: MDA-MB-436 cells; assay: Cell proliferation assay (MDA-MB-436); assay type: cell-based; settings: Homo sapiens, MDA-MB-436, 168 h, at least 7 days, Cell-Titer Glo, read-out: MDA-MB-436 anti-proliferation assay
Procedure: (§1) For PARPi sensitivity, exponentially growing MDA-MB-436 and DLD1 BRCA2^−/− cells were seed in 96 or 384-well plates at very low density with the goal of not splitting for at least 7 days (typically 0.3k-1.2k cells/well). Cells were plated on […] and treated with DMSO or increasing concentrations of PARP1 inhibitors on Day 0. At the end of the experiment, cell viability was estimated using Cell-Titer Glo (Promega).

[4] = tested on: DLD1 BRCA2−/− cells; assay: Cell proliferation assay (DLD1 BRCA2−/−); assay type: cell-based; settings: Homo sapiens, DLD-1, 168 h, at least 7 days, Cell-Titer Glo, read-out: DLD1 BRCA2−/− anti-proliferation assay
Procedure: as §1

[5] = Tumor/plasma ratio study in MDA-MB-436 tumor-bearing mouse; assay type: in vivo; settings: female NOD-SCID mice with MDA-MB-436 tumors, dosed 28 days; for concentration at 24 h: LC-MS/MS; for Kp at 24 h: tumor/plasma, 24 hours after the last dose
Procedure: 1×10^7 MDA-MB-436 cells were implanted subcutaneously onto the flank of female NOD-SCID mice (aged 6-8 weeks weighing approximately 18-22 g). When tumors reached approximately 150-180 mm3, the mice were randomly assigned to treatment groups. The mice were continuously dosed with the Compounds for 28 days. On day 29, blood (50 μL) and tumor tissue samples were collected at 24 hours after the last dose. The collected blood samples were then centrifuged at 4600 rpm for 5 minutes at 4° C. to obtain plasma. To determine compound levels in plasma samples, each plasma sample was prepared using an appropriate dilution factor and compared against an 11-point standard calibration curve (1-5,000 ng/mL) prepared in DMSO and spiked into blank plasma. Acetonitrile (200 μL) was added with internal standard into 20 μL plasma samples, followed by centrifugation at 5,500 rpm for 10 minutes. Supernatant (150 μL) was then diluted in water (150 μL) and analyzed via LC-MS/MS. Tumor tissue samples were weighed, and then homogenized with 80% methanol at a ratio of 1:5 or 1:10 (tumor weight in grams to methanol volume in milliliters). Acetonitrile (300 μL) was added with internal standard into 30 μL tumor homogenates sample. The samples were vortexed for 30 s and then centrifuged at 5,500 rpm for 10 min at 4° C. The supernatant (150 μL) was transferred to 96-well plate and diluted with water (150 μL) and analyzed via LC-MS/MS. If a sample concentration in initial assay was not covered in the range of a given standard curve, proper dilution and concentration procedures were used in repeated testing.

[6] = tumor tissue 24 hours after the last dose, read-out: Tumor
[7] = plasma, sample 24 hours after the last dose, read-out: Plasma

Chain of PARP1 (P09874 whole entry): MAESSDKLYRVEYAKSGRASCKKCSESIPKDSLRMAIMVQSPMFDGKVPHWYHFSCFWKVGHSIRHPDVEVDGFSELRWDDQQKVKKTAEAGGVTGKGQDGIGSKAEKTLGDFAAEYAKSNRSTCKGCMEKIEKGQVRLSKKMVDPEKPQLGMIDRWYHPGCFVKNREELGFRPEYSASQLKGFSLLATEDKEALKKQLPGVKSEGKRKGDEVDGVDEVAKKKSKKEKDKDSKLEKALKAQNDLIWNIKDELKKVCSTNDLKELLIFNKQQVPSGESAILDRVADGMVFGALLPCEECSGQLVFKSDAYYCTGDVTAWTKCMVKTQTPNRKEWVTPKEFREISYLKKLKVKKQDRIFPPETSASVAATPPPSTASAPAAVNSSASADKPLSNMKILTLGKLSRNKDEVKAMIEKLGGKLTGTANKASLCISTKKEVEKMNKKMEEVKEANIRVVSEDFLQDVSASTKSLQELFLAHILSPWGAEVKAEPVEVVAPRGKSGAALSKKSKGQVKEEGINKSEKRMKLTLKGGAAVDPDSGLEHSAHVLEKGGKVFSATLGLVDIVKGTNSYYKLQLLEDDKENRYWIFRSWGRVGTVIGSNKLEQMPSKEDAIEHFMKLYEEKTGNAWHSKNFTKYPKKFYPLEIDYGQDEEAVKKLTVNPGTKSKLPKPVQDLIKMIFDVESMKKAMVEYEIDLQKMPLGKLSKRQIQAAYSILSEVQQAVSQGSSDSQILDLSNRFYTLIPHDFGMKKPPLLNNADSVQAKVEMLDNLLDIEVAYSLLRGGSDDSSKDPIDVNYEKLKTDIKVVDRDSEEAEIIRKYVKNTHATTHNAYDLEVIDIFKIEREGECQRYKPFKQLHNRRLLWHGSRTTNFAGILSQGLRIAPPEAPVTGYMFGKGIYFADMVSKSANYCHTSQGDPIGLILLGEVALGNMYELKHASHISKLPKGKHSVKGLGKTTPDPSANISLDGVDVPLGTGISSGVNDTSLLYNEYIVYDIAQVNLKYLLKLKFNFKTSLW

pIC50 [1]	pIC50 [2]	pIC50 [3]	pIC50 [4]	concentration at 24 h [5, 6] [ng/g]	concentration at 24 h [5, 7] [ng/mL]	Kp at 24 h [5]	Structure (SMILES)
8.12	5.96	9.64	9.66	–	–	–	CCc1cc2ncc(CN3C[C@@H]4CN(c5ccc(C(=O)NC)nc5F)C[C@H]4C3)cc2[nH]c1=O [Compound 27]
8.09	5.61	8.78	8.52	–	–	–	COCCNC(=O)c1ccc(N2C[C@H]3CN(Cc4cnc5c(c4)[nH]c(=O)c4cccn45)C[C@@H]3C2)cn1 [Compound 46]
8.13	5.48	9.36	8.84	121	4.3	28	O=C(NC1COC1)c1ccc(N2C[C@H]3CN(Cc4cnc5c6c(c(=O)[nH]c5c4)CCC6)C[C@@H]3C2)c(F)n1 [Compound 52]
8.02	6.08	9.46	8.68	–	–	–	O=C(NC1CC1)c1ccc(N2C[C@@H]3CN(Cc4cnc5c6c(c(=O)[nH]c5c4)COCC6)C[C@H]3C2)c(F)n1 (stereo in doubt) [Compound 72]
7.92	5.69	9.13	8.99	–	–	–	CNC(=O)c1ccc(N2C[C@H]3CN(Cc4cnc5c6c(c(=O)[nH]c5c4)CCC6)C[C@@H]3C2)c(F)n1 [Compound 48]
8.30	6.30	9.74	9.36	–	–	–	CNC(=O)c1ccc(N2C[C@H]3CN(Cc4cnc5c6c(c(=O)[nH]c5c4)COCC6)C[C@@H]3C2)c(F)n1 [Compound 71]
8.38	6.21	9.41	9.15	–	–	–	CO[C@H]1C[C@@H](NC(=O)c2ccc(N3C[C@H]4CN(Cc5ccc6c7c(c(=O)[nH]c6c5)COCC7)C[C@@H]4C3)c(F)n2)C1 [Compound 70]
8.53	6.17	9.62	9.09	–	–	–	O=C(NC1COC1)c1ccc(N2C[C@H]3CN(Cc4ccc5c6c(c(=O)[nH]c5c4)COCC6)C[C@@H]3C2)c(F)n1 [Compound 69]
8.12	6.83	9.27	9.27	–	–	–	O=C(NC1COC1)c1ccc(N2C[C@H]3CN(Cc4cnc5c6c(c(=O)[nH]c5c4)CCCC6)C[C@@H]3C2)c(F)n1 [Compound 83]
8.21	6.48	9.44	9.20	–	–	–	CNC(=O)c1ccc(N2C[C@H]3CN(Cc4ccc5c6c(c(=O)[nH]c5c4)COCC6)C[C@@H]3C2)cn1 [Compound 65]
8.19	5.15	9.35	9.27	–	–	–	CNC(=O)c1ccc(N2C[C@H]3CN(Cc4cc5[nH]c(=O)c6c(c5cn4)CCC6)C[C@@H]3C2)c(F)n1 [Compound 54]
8.30	5.41	9.08	8.32	–	–	–	CNC(=O)c1ccc(N2C[C@H]3CN(Cc4cc5[nH]c(=O)c6c(c5cn4)COCC6)C[C@@H]3C2)c(F)n1 [Compound 80]
7.93	5.63	8.65	8.86	–	–	–	O=C(N[C@@H]1CCOC1)c1ccc(N2C[C@H]3CN(Cc4ccc5c6c(c(=O)[nH]c5c4)COCC6)C[C@@H]3C2)c(F)n1 [Compound 86]
8.24	5.92	9.18	9.21	244	22	11	O=C(NC1COC1)c1ccc(N2C[C@H]3CN(Cc4ccc5c6c(c(=O)[nH]c5c4)CCC6)C[C@@H]3C2)c(F)n1 [Compound 87]
8.11	5.79	9.39	8.57	–	–	–	CNC(=O)c1ccc(N2C[C@H]3CN(Cc4cc5[nH]c(=O)c6c(c5cn4)CCOC6)C[C@@H]3C2)c(F)n1 [Compound 77]
8.10	5.54	9.62	9.26	–	–	–	O=C(NC1COC1)c1ccc(N2C[C@H]3CN(Cc4cnc5c(c4)[nH]c(=O)c4cccn45)C[C@@H]3C2)c(F)n1 [Compound 64]
8.20	5.90	9.43	9.48	–	–	–	CCc1cc2ncc(CN3C[C@@H]4CN(c5ccc(C(=O)NC)nc5)C[C@H]4C3)cc2[nH]c1=O [Compound 15]
8.09	5.61	8.98	8.80	–	–	–	CNC(=O)c1ccc(N2C[C@H]3CN(Cc4ccc5c6c(c(=O)[nH]c5c4)COC6)C[C@@H]3C2)c(F)n1 [Compound 60]
7.88	6.73	8.86	9.26	–	–	–	CNC(=O)c1ccc(N2C[C@H]3CN(Cc4cnc5c6c(c(=O)[nH]c5c4)CCCC6)C[C@@H]3C2)c(F)n1 [Compound 82]
8.02	5.68	8.99	8.67	–	–	–	COCCNC(=O)c1ccc(N2C[C@H]3CN(Cc4cnc5c6c(c(=O)[nH]c5c4)CCC6)C[C@@H]3C2)c(F)n1 [Compound 49]
8.03	5.39	9.21	9.11	–	–	–	CCc1cc2cnc(CN3C[C@@H]4CN(c5ccc(C(=O)NC)nc5F)C[C@H]4C3)cc2[nH]c1=O [Compound 40]
8.28	6.24	9.30	9.15	–	–	–	CCNC(=O)c1ccc(N2C[C@H]3CN(Cc4cnc5c6c(c(=O)[nH]c5c4)COCC6)C[C@@H]3C2)c(F)n1 [Compound 76]
8.31	6.66	9.92	9.28	–	–	–	CNC(=O)c1ccc(N2C[C@H]3CN(Cc4ccc5c6c(c(=O)[nH]c5c4)COCC6)C[C@@H]3C2)c(F)n1 [Compound 66]
8.10	6.03	9.05	9.24	–	–	–	CNC(=O)c1ccc(N2C[C@@H]3CN(Cc4cnc5c(c4)[nH]c(=O)c4cccn45)C[C@H]3C2)cn1 (racemic) [Compound 4]
–	–	–	–	249	584	0.4	CCc1cc2ncc(CN3CCN(c4ccc(C(=O)NC)nc4)CC3)cc2[nH]c1=O [AZD5305, reference compound]
8.09	6.09	8.98	8.96	–	–	–	O=C(N[C@H]1CCOC1)c1ccc(N2C[C@H]3CN(Cc4ccc5c6c(c(=O)[nH]c5c4)COCC6)C[C@@H]3C2)c(F)n1 [Compound 85]

Reference: patent publication US20260226076A1, “FUSED MULTICYCLIC COMPOUNDS AND THEIR USE AS PARP1 INHIBITORS” (LAEKNA THERAPEUTICS SHANGHAI CO., LTD., priority 2022, published 2026)
